The assay has as its system cirrhotic patients defined as Child-Pugh class A and B with manifestation of CHE. The assay is described as follows: Continuous Reaction Time (CRT) test, clinical Phase II study part D (EudraCT 2016-003651-30), 21 days extended treatment. The format is in vivo, human. As for the experimental part:
Protocol EudraCT 2016-003651-30 was a randomized, double-blinded, placebo-controlled study consisting of four parts, where part D (partly) of the study is relevant to the herein disclosed and claimed invention. The aim of the study was to assess the potential efficacy (Part D) of the compound golexanolone in patients with cirrhosis. The study was performed at sites in Sweden, Denmark, Ukraine, Russia, Hungary and Poland.
Extended treatment (21 consecutive days) in cirrhotic patients defined as Child-Pugh class A and B with manifestation of CHE, was performed.
An objective of study part D (phase IIa, extended treatment) was to assess preliminary efficacy of treatment with the compound golexanolone on cognitive function, as measured by the Continuous Reaction time (CRT) test.
In order to be eligible for the study, patients required evidence of cognitive impairment defined as a CRT index <1.9 at screening. CRT was re-assessed at baseline, prior to dosing but was not required to be abnormal at baseline.
Exclusion criteria included uncontrolled infection, active gastrointestinal bleeding, a history of bleeding requiring transfusion, transjugular intrahepatic portosystemic shunt placement within the past 90 days, hepatorenal syndrome, uncontrolled ascites, current malignancy, evidence of overt HE at screening or within 7 days of screening, use of psychoactive drugs, or any other psychiatric or medical comorbidity judged by the Investigator to preclude safe participation and/or confound the interpretation of study results.
Alcohol consumption was not allowed within two days prior to screening or for 24 hours prior to all study visits. Moreover, subjects were required to have a negative alcohol breath test at screening and subsequent study visits, including Part D study days 10 and 21 at which cognitive function was measured.
The Investigational Medicinal Product (IMP) is self-administered by the patient at home, except for the study days of visiting the clinic (Days 1, 10 and 21), when the IMP is administered under surveillance. Assistance of a dedicated care-giver or family members/friends is mandatory during the extended treatment period. Intake of study medication, changes in concomitant medications and medical events between visits are registered in a diary on a daily basis by the patient/care-giver and a care-giver diary is completed. Efficacy parameters are evaluated. If assessed as required for practical reasons, a patient can be confined to the research clinic from the evening before dosing on Day 21. A follow-up visit is performed 5-10 days after (last) IMP administration. Change in CRT index from baseline (day 1) to 10 and 21 days respectively after start of treatment, as
compared to placebo, is evaluated.
The Investigational Medical Product (clinical formulation) is supplied as a lipid semi-solid filled in a gelatine capsule for oral administration. For the present study, each capsule contains 10 mg golexanolone. The excipient is a mixture of mono -and diglycerides of capric/caprylic glycerides (Imwitor® 742), which is of pharmacopoeia quality.
The Investigational Medical Product golexanolone is administered every twelve (12) hours (i. e. twice daily) for 21 consecutive days.
10 mg golexanolone BID (i.e. 20 mg per day) in combination with Standard of Care therapy; or 40 mg golexanolone BID (i.e. 80 mg per day) in combination with Standard of Care therapy; or 80 mg golexanolone BID (i.e. 160 mg per day) in combination with Standard of Care therapy; or placebo BID in combination with Standard of Care therapy.
Standard of Care therapy may be any one of an oral antioxidant, fluvoxamine, fluoxetine, ondansetron, colchicine, UDCA (ursodeoxycholic acid), OCA (obeticholic acid), ciclosporin, nalmefene, modafinil, rituximab, lactulose, rifaximin, propranolol, furosemide, methotrexate; or any combination thereof.

Turning to `C#C[C@]1(O)CC[C@@]2(C)C(CC[C@@H]3[C@@H]2CC[C@]2(C)/C(=N/O)CC[C@@H]32)C1` (stereo partly drawn) [Golexanolone, 3α-ethynyl-3β-hydroxyandrostan-17-one oxime], the “Change in CRT compared to baseline” value reads like this: (36 patients with abnormal CRT (<1.9) at baseline, 10 mg BID oral with Standard of Care, Day 10, N = 8) 0.3504; (36 patients with abnormal CRT (<1.9) at baseline, 10 mg BID oral with Standard of Care, Day 21, N = 8) 0.4166; (36 patients with abnormal CRT (<1.9) at baseline, 40 mg BID oral with Standard of Care, Day 10, N = 10) 0.3035; (36 patients with abnormal CRT (<1.9) at baseline, 40 mg BID oral with Standard of Care, Day 21, N = 10) 0.4276; (36 patients with abnormal CRT (<1.9) at baseline, 80 mg BID oral with Standard of Care, Day 10, N = 9) 0.5109; (36 patients with abnormal CRT (<1.9) at baseline, 80 mg BID oral with Standard of Care, Day 21, N = 9) 0.5219. Moreover, the “Change in CRT compared to baseline” value by setting is: (all 45 patients with abnormal (<1.9) or normal CRT at baseline, 10 mg BID oral with Standard of Care, Day 10, N = 10) 0.2762; (all 45 patients with abnormal (<1.9) or normal CRT at baseline, 10 mg BID oral with Standard of Care, Day 21, N = 10) 0.2792; (all 45 patients with abnormal (<1.9) or normal CRT at baseline, 40 mg BID oral with Standard of Care, Day 10, N = 10) 0.3035; (all 45 patients with abnormal (<1.9) or normal CRT at baseline, 40 mg BID oral with Standard of Care, Day 21, N = 10) 0.4276; (all 45 patients with abnormal (<1.9) or normal CRT at baseline, 80 mg BID oral with Standard of Care, Day 10, N = 13) 0.4593; (all 45 patients with abnormal (<1.9) or normal CRT at baseline, 80 mg BID oral with Standard of Care, Day 21, N = 13) 0.3505.

These data come from patent publication US20230134958A1, “NEW MEDICAL TREATMENT” (Umecrine Cognition AB, priority 2021, published 2023).
